Measurements published in patent US20230139171A1 (SITA Information Networking Computing UK Limited, priority 2019, published 2023).

Columns and labels:
Assay type in all cases: cell-based
human TLR7 = target: T1, human TLR7 (Homo sapiens, UniProt Q9NYK1); test: TLR7 inhibition reporter assay (HEK-Blue cells, SEAP reporter, gardiquimod stimulation); settings: HEK-Blue cells overexpressing human TLR7, SEAP reporter, gardiquimod 7.5 μM; read-out: TLR7 IC50
T1 construct: host or cells: HEK-Blue cells
T1 sequence (Q9NYK1 27-1049): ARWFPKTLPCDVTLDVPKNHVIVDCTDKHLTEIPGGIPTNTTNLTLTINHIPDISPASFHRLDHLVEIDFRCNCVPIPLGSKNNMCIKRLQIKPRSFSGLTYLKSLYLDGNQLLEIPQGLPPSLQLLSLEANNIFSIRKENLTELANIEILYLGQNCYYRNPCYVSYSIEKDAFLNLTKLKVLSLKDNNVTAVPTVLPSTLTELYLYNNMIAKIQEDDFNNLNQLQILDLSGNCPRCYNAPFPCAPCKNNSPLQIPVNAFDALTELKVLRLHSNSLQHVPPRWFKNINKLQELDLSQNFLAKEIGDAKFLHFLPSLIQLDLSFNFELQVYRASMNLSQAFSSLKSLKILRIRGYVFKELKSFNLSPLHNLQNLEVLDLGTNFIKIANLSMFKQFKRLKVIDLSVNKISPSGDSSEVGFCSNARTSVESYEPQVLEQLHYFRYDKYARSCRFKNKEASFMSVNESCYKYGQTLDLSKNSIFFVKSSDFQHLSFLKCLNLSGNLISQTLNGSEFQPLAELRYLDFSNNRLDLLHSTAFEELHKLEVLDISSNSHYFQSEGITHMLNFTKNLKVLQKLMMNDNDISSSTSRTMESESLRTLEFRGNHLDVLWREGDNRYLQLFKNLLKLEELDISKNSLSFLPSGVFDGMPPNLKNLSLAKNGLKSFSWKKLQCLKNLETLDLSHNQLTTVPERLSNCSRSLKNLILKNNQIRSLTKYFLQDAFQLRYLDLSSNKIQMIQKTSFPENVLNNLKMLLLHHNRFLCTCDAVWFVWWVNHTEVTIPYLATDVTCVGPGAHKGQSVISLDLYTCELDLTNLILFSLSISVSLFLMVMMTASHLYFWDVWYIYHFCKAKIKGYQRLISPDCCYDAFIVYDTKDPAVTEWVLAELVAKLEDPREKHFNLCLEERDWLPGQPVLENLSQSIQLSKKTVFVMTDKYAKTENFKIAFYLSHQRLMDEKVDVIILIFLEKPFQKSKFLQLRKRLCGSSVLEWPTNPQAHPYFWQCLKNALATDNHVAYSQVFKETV
Summary of the method: (§1)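 HEK-Blue cells overexpressing human TLR7, TLR8 or TLR9 carry a SEAP reporter driven by NF-κB/AP-1 sites. Compounds (0.05 nM–50 μM) were preincubated 30 min at room temperature, then cells were stimulated with gardiquimod 7.5 μM (TLR7), R848 15.9 μM (TLR8) or ODN2006 5 nM (TLR9) for 22 h at 37 °C.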

human TLR8 = target: T2, human TLR8 (Homo sapiens, UniProt Q9NR97); test: TLR8 inhibition reporter assay (HEK-Blue cells, SEAP reporter, R848 stimulation); settings: HEK-Blue cells overexpressing human TLR8, SEAP reporter, R848 15.9 μM; read-out: TLR8 IC50
T2 construct: host or cells: HEK-Blue cells
T2 sequence (Q9NR97 27-1041): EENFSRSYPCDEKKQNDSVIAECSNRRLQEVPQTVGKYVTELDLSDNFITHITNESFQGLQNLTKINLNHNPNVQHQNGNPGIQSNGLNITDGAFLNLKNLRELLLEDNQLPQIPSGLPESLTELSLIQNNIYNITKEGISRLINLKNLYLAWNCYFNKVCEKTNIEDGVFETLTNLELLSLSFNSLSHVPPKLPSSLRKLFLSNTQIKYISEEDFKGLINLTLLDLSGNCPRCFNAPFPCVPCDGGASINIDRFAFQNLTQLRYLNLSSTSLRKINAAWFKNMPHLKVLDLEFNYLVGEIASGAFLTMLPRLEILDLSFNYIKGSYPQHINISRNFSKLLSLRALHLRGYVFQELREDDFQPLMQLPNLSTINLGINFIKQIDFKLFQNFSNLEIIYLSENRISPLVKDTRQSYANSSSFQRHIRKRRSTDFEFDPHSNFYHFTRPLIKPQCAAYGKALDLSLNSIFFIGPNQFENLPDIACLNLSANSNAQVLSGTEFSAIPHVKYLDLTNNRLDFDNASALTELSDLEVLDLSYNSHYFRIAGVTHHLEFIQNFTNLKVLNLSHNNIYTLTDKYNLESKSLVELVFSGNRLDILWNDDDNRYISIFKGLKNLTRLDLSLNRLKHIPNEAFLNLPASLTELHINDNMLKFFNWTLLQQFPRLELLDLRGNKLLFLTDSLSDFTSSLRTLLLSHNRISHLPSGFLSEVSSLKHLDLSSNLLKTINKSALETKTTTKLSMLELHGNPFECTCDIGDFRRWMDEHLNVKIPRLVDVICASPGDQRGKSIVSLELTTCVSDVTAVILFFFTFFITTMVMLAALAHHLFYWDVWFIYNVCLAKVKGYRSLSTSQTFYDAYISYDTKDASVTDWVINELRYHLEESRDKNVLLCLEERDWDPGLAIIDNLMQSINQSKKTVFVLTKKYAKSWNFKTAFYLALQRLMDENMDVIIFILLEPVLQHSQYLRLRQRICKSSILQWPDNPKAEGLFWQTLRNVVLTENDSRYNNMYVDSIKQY
Summary of the method: as §1

human TLR9 = target: T3, human TLR9 (Homo sapiens, UniProt Q9NR96); test: TLR9 inhibition reporter assay (HEK-Blue cells, SEAP reporter, ODN2006 stimulation); settings: HEK-Blue cells overexpressing human TLR9, SEAP reporter, ODN2006 5 nM
T3 construct: host or cells: HEK-Blue cells
T3 sequence (Q9NR96 26-1032): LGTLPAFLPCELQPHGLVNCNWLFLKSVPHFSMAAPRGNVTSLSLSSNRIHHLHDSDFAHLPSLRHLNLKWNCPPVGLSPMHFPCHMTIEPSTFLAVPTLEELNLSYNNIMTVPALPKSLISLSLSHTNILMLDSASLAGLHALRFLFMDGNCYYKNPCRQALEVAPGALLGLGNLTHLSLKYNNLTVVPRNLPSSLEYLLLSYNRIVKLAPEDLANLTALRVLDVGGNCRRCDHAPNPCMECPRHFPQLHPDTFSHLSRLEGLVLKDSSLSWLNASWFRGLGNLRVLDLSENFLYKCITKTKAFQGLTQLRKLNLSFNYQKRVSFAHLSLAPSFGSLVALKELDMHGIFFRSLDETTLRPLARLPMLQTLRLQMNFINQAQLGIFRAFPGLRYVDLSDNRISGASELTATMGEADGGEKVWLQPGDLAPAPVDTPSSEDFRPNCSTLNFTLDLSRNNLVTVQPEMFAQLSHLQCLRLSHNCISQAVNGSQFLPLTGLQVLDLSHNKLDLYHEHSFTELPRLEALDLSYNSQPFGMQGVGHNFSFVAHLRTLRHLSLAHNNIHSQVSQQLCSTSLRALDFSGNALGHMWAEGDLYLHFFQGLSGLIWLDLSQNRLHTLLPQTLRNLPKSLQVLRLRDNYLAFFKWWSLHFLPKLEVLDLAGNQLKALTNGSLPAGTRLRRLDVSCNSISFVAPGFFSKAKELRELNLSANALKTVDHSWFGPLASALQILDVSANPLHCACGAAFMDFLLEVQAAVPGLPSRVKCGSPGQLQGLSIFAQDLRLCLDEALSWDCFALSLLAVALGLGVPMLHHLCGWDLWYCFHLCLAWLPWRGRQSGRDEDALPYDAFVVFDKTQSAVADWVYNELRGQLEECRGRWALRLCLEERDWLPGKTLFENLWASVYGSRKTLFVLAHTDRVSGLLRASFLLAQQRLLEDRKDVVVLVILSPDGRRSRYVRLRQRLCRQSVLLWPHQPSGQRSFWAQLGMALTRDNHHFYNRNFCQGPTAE
Summary of the method: as §1

SMILES	IC50 (human TLR7) [nM]	IC50 (human TLR8) [nM]	IC50 (human TLR9) [nM]
CCN(C)C1CCC(c2nc3c(C(C)C)c(-c4cn(C)c(=O)c(C)c4C)[nH]c3s2)CC1 (single isomer, unassigned) [Example 247, 5-(2-(4-(ethyl(methyl)amino)cyclohexyl)-6-isopropyl-4H-pyrrolo[3,2-d]thiazol-5-yl)-1,3,4-trimethylpyridin-2(1H)-one]	5.87	4.42	42500
CCN(C)C1CCC(c2nc3c(C(C)C)c(-c4cn(C)c(=O)c(C)c4C)[nH]c3s2)CC1 (single isomer, unassigned) [Example 248, 5-(2-(4-(ethyl(methyl)amino)cyclohexyl)-6-isopropyl-4H-pyrrolo[3,2-d]thiazol-5-yl)-1,3,4-trimethylpyridin-2(1H)-one]	8.33	12	14000
Cc1c(-c2[nH]c3sc(C4CCC(NC5CCOCC5)CC4)nc3c2C(C)C)cn(C)c(=O)c1C (single isomer, unassigned) [Example 249, 5-(6-isopropyl-2-(4-((tetrahydro-2H-pyran-4-yl)amino)cyclohexyl)-4H-pyrrolo[3,2-d]thiazol-5-yl)-1,3,4-trimethylpyridin-2(1H)-one]	6.34	1.19	19800
Cc1c(-c2[nH]c3sc(C4CCC(NCC(C)(C)O)CC4)nc3c2C(C)C)cn(C)c(=O)c1C (single isomer, unassigned) [Example 251, 5-(2-(4-((2-hydroxy-2-methylpropyl)amino)cyclohexyl)-6-isopropyl-4H-pyrrolo[3,2-d]thiazol-5-yl)-1,3,4-trimethylpyridin-2(1H)-one]	10.6	2.68	45300
Cc1c(-c2[nH]c3sc(C4CCC(NC(C)C)CC4)nc3c2C(C)C)cn(C)c(=O)c1C (single isomer, unassigned) [Example 253, 5-(6-isopropyl-2-(4-(isopropylamino)cyclohexyl)-4H-pyrrolo[3,2-d]thiazol-5-yl)-1,3,4-trimethylpyridin-2(1H)-one]	4.7	3.01	23000

Next, values leading:

IC50 (human TLR7) [nM]	IC50 (human TLR8) [nM]	IC50 (human TLR9) [nM]	SMILES
16.4	2.1	29800	COC(C)(C)CNC1CCC(c2nc3c(C(C)C)c(-c4cn(C)c(=O)c(C)c4C)[nH]c3s2)CC1 (single isomer, unassigned) [Example 243, 5-(6-isopropyl-2-(4-((2-methoxy-2-methylpropyl)amino)cyclohexyl)-4H-pyrrolo[3,2-d]thiazol-5-yl)-1,3,4-trimethylpyridin-2(1H)-one]
44	17.5	25300	COC(C)(C)CNC1CCC(c2nc3c(C(C)C)c(-c4cn(C)c(=O)c(C)c4C)[nH]c3s2)CC1 (single isomer, unassigned) [Example 244, 5-(6-isopropyl-2-(4-((2-methoxy-2-methylpropyl)amino)cyclohexyl)-4H-pyrrolo[3,2-d]thiazol-5-yl)-1,3,4-trimethylpyridin-2(1H)-one]
2.6	0.65	22900	Cc1c(-c2[nH]c3sc(C4CCC(N5CC6(COC6)C5)CC4)nc3c2C(C)C)cn(C)c(=O)c1C (single isomer, unassigned) [Example 245, 5-(2-(4-(2-oxa-6-azaspiro[3.3]heptan-6-yl)cyclohexyl)-6-isopropyl-4H-pyrrolo[3,2-d]thiazol-5-yl)-1,3,4-trimethylpyridin-2(1H)-one]
60.8	154	> 50000	Cc1c(-c2[nH]c3sc(C4CCC(N5CC6(COC6)C5)CC4)nc3c2C(C)C)cn(C)c(=O)c1C (single isomer, unassigned) [Example 246, 5-(2-(4-(2-oxa-6-azaspiro[3.3]heptan-6-yl)cyclohexyl)-6-isopropyl-4H-pyrrolo[3,2-d]thiazol-5-yl)-1,3,4-trimethylpyridin-2(1H)-one]
46.8	43.6	43300	Cc1c(-c2[nH]c3sc(C4CCC(NC5CCOCC5)CC4)nc3c2C(C)C)cn(C)c(=O)c1C (single isomer, unassigned) [Example 250, 5-(6-isopropyl-2-(4-((tetrahydro-2H-pyran-4-yl)amino)cyclohexyl)-4H-pyrrolo[3,2-d]thiazol-5-yl)-1,3,4-trimethylpyridin-2(1H)-one]
67.9	35.8	> 50000	Cc1c(-c2[nH]c3sc(C4CCC(NCC(C)(C)O)CC4)nc3c2C(C)C)cn(C)c(=O)c1C (single isomer, unassigned) [Example 252, 5-(2-(4-((2-hydroxy-2-methylpropyl)amino)cyclohexyl)-6-isopropyl-4H-pyrrolo[3,2-d]thiazol-5-yl)-1,3,4-trimethylpyridin-2(1H)-one]
26.8	22.7	29200	Cc1c(-c2[nH]c3sc(C4CCC(NC(C)C)CC4)nc3c2C(C)C)cn(C)c(=O)c1C (single isomer, unassigned) [Example 254, 5-(6-isopropyl-2-(4-(isopropylamino)cyclohexyl)-4H-pyrrolo[3,2-d]thiazol-5-yl)-1,3,4-trimethylpyridin-2(1H)-one]
